This note sets out measurements from EP0200794A1, “Derivatives of ubiquinone, process for their preparation and pharmaceutical compositions containing them” (MAGIS FARMACEUTICI S.p.A., priority 1985, dated 1986).

For series [1], the system named is rats of Sprague-Dawley stock. Nature of the series: Chronic toxicity. It counts as in vivo. The following applies: Sprague-Dawley rats of both sexes, oral and intravenous way, 50 mg/kg per day for three months. As for the experimental part: The chronic toxicity of the new derivatives has been studied by oral and intravenous way in the rats of Sprague-Dawley stock of both sexes, of body weight of about 210 g. The new derivatives, used as drops or in aqueous solution, have been administred to groups of 10 animals (5 males and 5 females). The tests have been carried out in parallel with equivalent amounts of ubiquinone (hydroalcoholic solution). The doses have been of 50 mg/kg per day for three months.

A short description of series [2]: Light stability in oral preparations. It counts as physicochemical.

With `COC1=C(OC)C(=O)C(C/C=C(\C)CC/C=C(\C)CC/C=C(\C)CC/C=C(\C)CC/C=C(\C)CC/C=C(\C)CC/C=C(\C)CC/C=C(\C)CC/C=C(\C)CCC=C(C)C)=C(C)C1=O` [ubiquinone, Ubiquinone(10)], the “toxic effects (chronic toxicity)” value in series [1] is listed as “No toxic effects”. As for Ubiquinone bisulphite [Example 1], the “stability under the effect of the light” value in series [2] was “high stability”.
